Assay results published in patent US11000033B2, “Ketone or oxime compound, and herbicide” (NISSAN CHEMICAL CORPORATION, priority 2014, dated 2021).

Columns and labels:
Assay type in all cases: in vivo
[1] = tested on: rice plant; test: Test Example 5: effect on crop by foliage application, plastic box (symbol b); details: 320 g/ha, 3 weeks after application
From the text: (§1) Herbicidal Effect Test by Foliage Application
(§2) Sterilized diluvial soil was placed in a plastic box having a length of 21 cm, a width of 13 cm, and a depth of 7 cm. Each of the seeds of Digitaria ciliaris, Setaria viridis, Echinochloa crus-galli var. crus-galli, Avena fatua, Alopecurus myosuroides, Lolium multiflorum Lam., Apera spica-venti, Abutilon theophrasti, Amaranthus retroflexus, Chenopodium album, Stellaria media, Galium spurium, Veronica persica, corn, soybean, rice plant, wheat, beet, and rapeseed was sowed in a spot-like manner and was covered with the soil of a thickness of about 1.5 cm. Thereafter, the plants were grown in the greenhouse of 25° C. to 30° C.

[2] = tested on: Digitaria ciliaris; test: Test Example 5: herbicidal effect by foliage application, plastic box (symbol F); details: 320 g/ha, 3 weeks after application
From the text: as §1
as §2, with “30° C. After the plants were grown for 14 days, the emulsion agent of the compound of the present invention prepared in accordance with Formulation Example 2 was diluted with water so as to be a predetermined herbicide amount and the diluted emulsion agent was uniformly applied to a foliage part with a small-size spray. 3 weeks later from the herbicide application, the effect to each plant was investigated in accordance with the criteria of Test Example 1.” for “30° C.”

[3] = tested on: Veronica persica; test: Test Example 5: herbicidal effect by foliage application, plastic box (symbol R); details: 320 g/ha, 3 weeks after application
From the text: as §1
as §2, with “30° C. After the plants were grown for 14 days, the emulsion agent of the compound of the present invention prepared in accordance with Formulation Example 2 was diluted with water so as to be a predetermined herbicide amount and the diluted emulsion agent was uniformly applied to a foliage part with a small-size spray. 3 weeks later from the herbicide application, the effect to each plant was investigated in accordance with the criteria of Test Example 1.” for “30° C.”

[4] = tested on: Apera spica-venti; test: Test Example 5: herbicidal effect by foliage application, plastic box (symbol L); details: 320 g/ha, 3 weeks after application
From the text: as §1
as §2, with “30° C. After the plants were grown for 14 days, the emulsion agent of the compound of the present invention prepared in accordance with Formulation Example 2 was diluted with water so as to be a predetermined herbicide amount and the diluted emulsion agent was uniformly applied to a foliage part with a small-size spray. 3 weeks later from the herbicide application, the effect to each plant was investigated in accordance with the criteria of Test Example 1.” for “30° C.”

[5] = tested on: Abutilon theophrasti; test: Test Example 5: herbicidal effect by foliage application, plastic box (symbol M); details: 320 g/ha, 3 weeks after application
From the text: as §1
as §2, with “30° C. After the plants were grown for 14 days, the emulsion agent of the compound of the present invention prepared in accordance with Formulation Example 2 was diluted with water so as to be a predetermined herbicide amount and the diluted emulsion agent was uniformly applied to a foliage part with a small-size spray. 3 weeks later from the herbicide application, the effect to each plant was investigated in accordance with the criteria of Test Example 1.” for “30° C.”

[6] = tested on: Alopecurus myosuroides; test: Test Example 5: herbicidal effect by foliage application, plastic box (symbol J); details: 320 g/ha, 3 weeks after application
From the text: as §1
as §2, with “30° C. After the plants were grown for 14 days, the emulsion agent of the compound of the present invention prepared in accordance with Formulation Example 2 was diluted with water so as to be a predetermined herbicide amount and the diluted emulsion agent was uniformly applied to a foliage part with a small-size spray. 3 weeks later from the herbicide application, the effect to each plant was investigated in accordance with the criteria of Test Example 1.” for “30° C.”

[7] = tested on: soybean; test: Test Example 5: effect on crop by foliage application, plastic box (symbol d); details: 320 g/ha, 3 weeks after application
From the text: as §1, §2

[8] = tested on: beet; test: Test Example 5: effect on crop by foliage application, plastic box (symbol f); details: 320 g/ha, 3 weeks after application
From the text: as §1, §2

[9] = tested on: rapeseed; test: Test Example 5: effect on crop by foliage application, plastic box (symbol g); details: 320 g/ha, 3 weeks after application
From the text: as §1, §2

[10] = tested on: wheat; test: Test Example 5: effect on crop by foliage application, plastic box (symbol e); details: 320 g/ha, 3 weeks after application
From the text: as §1, §2

[11] = tested on: Lolium multiflorum Lam.; test: Test Example 5: herbicidal effect by foliage application, plastic box (symbol K); details: 320 g/ha, 3 weeks after application
From the text: as §1
as §2, with “30° C. After the plants were grown for 14 days, the emulsion agent of the compound of the present invention prepared in accordance with Formulation Example 2 was diluted with water so as to be a predetermined herbicide amount and the diluted emulsion agent was uniformly applied to a foliage part with a small-size spray. 3 weeks later from the herbicide application, the effect to each plant was investigated in accordance with the criteria of Test Example 1.” for “30° C.”

[12] = tested on: Amaranthus retroflexus; test: Test Example 5: herbicidal effect by foliage application, plastic box (symbol N); details: 320 g/ha, 3 weeks after application
From the text: as §1
as §2, with “30° C. After the plants were grown for 14 days, the emulsion agent of the compound of the present invention prepared in accordance with Formulation Example 2 was diluted with water so as to be a predetermined herbicide amount and the diluted emulsion agent was uniformly applied to a foliage part with a small-size spray. 3 weeks later from the herbicide application, the effect to each plant was investigated in accordance with the criteria of Test Example 1.” for “30° C.”

[13] = tested on: corn; test: Test Example 5: effect on crop by foliage application, plastic box (symbol c); details: 320 g/ha, 3 weeks after application
From the text: as §1, §2

[14] = tested on: Echinochloa crus-galli var. crus-galli; test: Test Example 5: herbicidal effect by foliage application, plastic box (symbol H); details: 320 g/ha, 3 weeks after application
From the text: as §1
as §2, with “30° C. After the plants were grown for 14 days, the emulsion agent of the compound of the present invention prepared in accordance with Formulation Example 2 was diluted with water so as to be a predetermined herbicide amount and the diluted emulsion agent was uniformly applied to a foliage part with a small-size spray. 3 weeks later from the herbicide application, the effect to each plant was investigated in accordance with the criteria of Test Example 1.” for “30° C.”

[15] = tested on: Stellaria media; test: Test Example 5: herbicidal effect by foliage application, plastic box (symbol P); details: 320 g/ha, 3 weeks after application
From the text: as §1
as §2, with “30° C. After the plants were grown for 14 days, the emulsion agent of the compound of the present invention prepared in accordance with Formulation Example 2 was diluted with water so as to be a predetermined herbicide amount and the diluted emulsion agent was uniformly applied to a foliage part with a small-size spray. 3 weeks later from the herbicide application, the effect to each plant was investigated in accordance with the criteria of Test Example 1.” for “30° C.”

[16] = tested on: Avena fatua; test: Test Example 5: herbicidal effect by foliage application, plastic box (symbol I); details: 320 g/ha, 3 weeks after application
From the text: as §1
as §2, with “30° C. After the plants were grown for 14 days, the emulsion agent of the compound of the present invention prepared in accordance with Formulation Example 2 was diluted with water so as to be a predetermined herbicide amount and the diluted emulsion agent was uniformly applied to a foliage part with a small-size spray. 3 weeks later from the herbicide application, the effect to each plant was investigated in accordance with the criteria of Test Example 1.” for “30° C.”

[17] = tested on: Setaria viridis; test: Test Example 5: herbicidal effect by foliage application, plastic box (symbol G); details: 320 g/ha, 3 weeks after application
From the text: as §1
as §2, with “30° C. After the plants were grown for 14 days, the emulsion agent of the compound of the present invention prepared in accordance with Formulation Example 2 was diluted with water so as to be a predetermined herbicide amount and the diluted emulsion agent was uniformly applied to a foliage part with a small-size spray. 3 weeks later from the herbicide application, the effect to each plant was investigated in accordance with the criteria of Test Example 1.” for “30° C.”

[18] = tested on: Chenopodium album; test: Test Example 5: herbicidal effect by foliage application, plastic box (symbol O); details: 320 g/ha, 3 weeks after application
From the text: as §1
as §2, with “30° C. After the plants were grown for 14 days, the emulsion agent of the compound of the present invention prepared in accordance with Formulation Example 2 was diluted with water so as to be a predetermined herbicide amount and the diluted emulsion agent was uniformly applied to a foliage part with a small-size spray. 3 weeks later from the herbicide application, the effect to each plant was investigated in accordance with the criteria of Test Example 1.” for “30° C.”

[19] = tested on: Echinochloa crus-galli var. crus-galli; test: Test Example 3: herbicidal effect by foliage application, Wagner pot (symbol H); details: application herbicide amount 320 g/ha
Method: as §1
(§3) After alluvial soil was placed into 1/10000 are of Wagner pot, water was poured and mixed to form a submerged condition having a water depth of 0.1 cm to 0.5 cm. Seeds of Echinochloa crus-galli var. crus-galli, Leptochloa chinensis, Cyperus difformis, and rice were sowed and the pot was placed in the greenhouse of 25° C. to 30° C. to grow the plants. After the plants were grown for 14 days, the emulsion agent of the compound of the present invention prepared in accordance with Formulation Example 2 was diluted with water so as to be a predetermined herbicide amount and the diluted emulsion agent was uniformly applied to a foliage part with a small-size spray. 3 weeks later from the herbicide application, the effect to each plant was investigated in accordance with the criteria of Test Example 1.

[20] = tested on: directly sowed rice plant; test: Test Example 3: effect on crop by foliage application, Wagner pot (symbol b); details: application herbicide amount 320 g/ha
Method: as §1
After alluvial soil was placed into 1/10000 are of Wagner pot, water was poured and mixed to form a submerged condition having a water depth of 0.1 cm to 0.5 cm. Seeds of Echinochloa crus-galli var. crus-galli, Leptochloa chinensis, Cyperus difformis, and rice were sowed and the pot was placed in the greenhouse of 25° C. to 30° C. to grow the plants.

[21] = tested on: Leptochloa chinensis; test: Test Example 3: herbicidal effect by foliage application, Wagner pot (symbol D); details: application herbicide amount 320 g/ha
Method: as §1, §3

[22] = tested on: Cyperus difformis; test: Test Example 3: herbicidal effect by foliage application, Wagner pot (symbol E); details: application herbicide amount 320 g/ha
Method: as §1, §3

SMILES | b: directly sowed rice plant, effect on crop grade [1] | F: Digitaria ciliaris, herbicidal effect grade [2] | R: Veronica persica, herbicidal effect grade [3] | L: Apera spica-venti, herbicidal effect grade [4] | M: Abutilon theophrasti, herbicidal effect grade [5] | J: Alopecurus myosuroides, herbicidal effect grade [6] | d: soybean, effect on crop grade [7] | f: beet, effect on crop grade [8] | g: rapeseed, effect on crop grade [9] | e: wheat, effect on crop grade [10] | N: Amaranthus retroflexus, herbicidal effect grade [12] | c: corn, effect on crop grade [13] | H: Echinochloa crus-galli var. crus-galli, herbicidal effect grade [14] | P: Stellaria media, herbicidal effect grade [15] | I: Avena fatua, herbicidal effect grade [16] | G: Setaria viridis, herbicidal effect grade [17] | O: Chenopodium album, herbicidal effect grade [18] | other results
CCC(C(C)=O)(C(=O)OC)C1CC(O)=C(c2c(C)cc(C)cc2C)C1=O (stereo not drawn) [2-023] | 3 (Herbicidal ratio of 40% or higher and lower than 70%) | 0 (Herbicidal ratio of 5% or lower (almost no effect)) | 0 (Herbicidal ratio of 5% or lower (almost no effect)) | 0 (Herbicidal ratio of 5% or lower (almost no effect)) | 0 (Herbicidal ratio of 5% or lower (almost no effect)) | 0 (Herbicidal ratio of 5% or lower (almost no effect)) | 0 (Herbicidal ratio of 5% or lower (almost no effect)) | 0 (Herbicidal ratio of 5% or lower (almost no effect)) | 0 (Herbicidal ratio of 5% or lower (almost no effect)) | 0 (Herbicidal ratio of 5% or lower (almost no effect)) | 0 (Herbicidal ratio of 5% or lower (almost no effect)) | 0 (Herbicidal ratio of 5% or lower (almost no effect)) | 1 (Herbicidal ratio of 5% or higher and lower than 20%) | 0 (Herbicidal ratio of 5% or lower (almost no effect)) | 0 (Herbicidal ratio of 5% or lower (almost no effect)) | 0 (Herbicidal ratio of 5% or lower (almost no effect)) | 0 (Herbicidal ratio of 5% or lower (almost no effect)) | K: Lolium multiflorum Lam., herbicidal effect grade [11]: 1 (Herbicidal ratio of 5% or higher and lower than 20%)
CON=C(C)CC1CC(O)=C(c2c(C)cc(NC(=O)OC(C)(C)C)cc2C)C1=O (mixture of isomers) [6-033] | 3 (Herbicidal ratio of 40% or higher and lower than 70%) | 0 (Herbicidal ratio of 5% or lower (almost no effect)) | 0 (Herbicidal ratio of 5% or lower (almost no effect)) | 0 (Herbicidal ratio of 5% or lower (almost no effect)) | 0 (Herbicidal ratio of 5% or lower (almost no effect)) | 0 (Herbicidal ratio of 5% or lower (almost no effect)) | 0 (Herbicidal ratio of 5% or lower (almost no effect)) | 0 (Herbicidal ratio of 5% or lower (almost no effect)) | 1 (Herbicidal ratio of 5% or higher and lower than 20%) | 0 (Herbicidal ratio of 5% or lower (almost no effect)) | 0 (Herbicidal ratio of 5% or lower (almost no effect)) | 3 (Herbicidal ratio of 40% or higher and lower than 70%) | 1 (Herbicidal ratio of 5% or higher and lower than 20%) | 0 (Herbicidal ratio of 5% or lower (almost no effect)) | 3 (Herbicidal ratio of 40% or higher and lower than 70%) | 0 (Herbicidal ratio of 5% or lower (almost no effect)) | 0 (Herbicidal ratio of 5% or lower (almost no effect)) | herbicidal effect on H (Echinochloa crus-galli var. crus-galli), grade 0-5 [19]: 0 (Herbicidal ratio of 5% or lower (almost no effect)); effect on crop b (directly sowed rice plant), grade 0-5 [20]: 0 (Herbicidal ratio of 5% or lower (almost no effect)); herbicidal effect on D (Leptochloa chinensis), grade 0-5 [21]: 0 (Herbicidal ratio of 5% or lower (almost no effect)); herbicidal effect on E, grade 0-5 [22]: 3 (Herbicidal ratio of 40% or higher and lower than 70%)
